What was measured:
[1] = biological target: Sucrase-isomaltase, intestinal (Rattus norvegicus) (UniProt P23739); assay: Inhibition of rat intestinal sucrase using p-nitrophenyl-alpha-d-glucopyranoside as substrate at 1 mM incubated for 10 mins prior to substrate addition measured after 5 mins by spectrophotometry
[2] = biological target: Sucrase-isomaltase, intestinal (Rattus norvegicus, UniProt P23739); assay: Inhibition of rat intestinal sucrase using p-nitrophenyl-alpha-d-glucopyranoside as substrate incubated for 10 mins prior to substrate addition measured after 5 mins by spectrophotometry
Chain of Sucrase-isomaltase, intestinal (P23739 1-1013 limits assumed): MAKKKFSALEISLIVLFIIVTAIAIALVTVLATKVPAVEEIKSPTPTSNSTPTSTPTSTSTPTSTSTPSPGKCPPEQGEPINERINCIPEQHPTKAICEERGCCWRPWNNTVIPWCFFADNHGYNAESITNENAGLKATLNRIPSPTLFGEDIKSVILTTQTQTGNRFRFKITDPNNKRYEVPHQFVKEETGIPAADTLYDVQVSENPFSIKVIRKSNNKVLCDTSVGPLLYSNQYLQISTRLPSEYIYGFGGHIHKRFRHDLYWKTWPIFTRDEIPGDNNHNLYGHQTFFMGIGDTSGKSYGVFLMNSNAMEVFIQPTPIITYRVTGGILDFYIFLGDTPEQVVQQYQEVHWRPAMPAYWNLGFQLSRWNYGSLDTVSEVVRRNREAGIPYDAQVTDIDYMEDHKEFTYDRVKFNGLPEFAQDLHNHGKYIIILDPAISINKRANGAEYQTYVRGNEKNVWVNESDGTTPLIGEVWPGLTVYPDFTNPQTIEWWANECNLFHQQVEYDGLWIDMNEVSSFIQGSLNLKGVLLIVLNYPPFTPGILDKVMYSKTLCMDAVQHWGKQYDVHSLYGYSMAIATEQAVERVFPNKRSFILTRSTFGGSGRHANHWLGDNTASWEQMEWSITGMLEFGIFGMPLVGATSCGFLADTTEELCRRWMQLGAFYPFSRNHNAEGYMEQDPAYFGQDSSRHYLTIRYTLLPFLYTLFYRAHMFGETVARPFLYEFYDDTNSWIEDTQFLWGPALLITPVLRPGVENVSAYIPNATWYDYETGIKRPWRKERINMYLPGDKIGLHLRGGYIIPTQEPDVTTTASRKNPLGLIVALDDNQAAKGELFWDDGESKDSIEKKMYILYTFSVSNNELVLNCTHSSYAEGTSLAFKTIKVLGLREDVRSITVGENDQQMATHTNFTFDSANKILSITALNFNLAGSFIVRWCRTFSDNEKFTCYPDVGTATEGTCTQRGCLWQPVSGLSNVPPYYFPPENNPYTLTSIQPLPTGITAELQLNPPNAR
Chain of Sucrase-isomaltase, intestinal (P23739 1014-1841 limits assumed): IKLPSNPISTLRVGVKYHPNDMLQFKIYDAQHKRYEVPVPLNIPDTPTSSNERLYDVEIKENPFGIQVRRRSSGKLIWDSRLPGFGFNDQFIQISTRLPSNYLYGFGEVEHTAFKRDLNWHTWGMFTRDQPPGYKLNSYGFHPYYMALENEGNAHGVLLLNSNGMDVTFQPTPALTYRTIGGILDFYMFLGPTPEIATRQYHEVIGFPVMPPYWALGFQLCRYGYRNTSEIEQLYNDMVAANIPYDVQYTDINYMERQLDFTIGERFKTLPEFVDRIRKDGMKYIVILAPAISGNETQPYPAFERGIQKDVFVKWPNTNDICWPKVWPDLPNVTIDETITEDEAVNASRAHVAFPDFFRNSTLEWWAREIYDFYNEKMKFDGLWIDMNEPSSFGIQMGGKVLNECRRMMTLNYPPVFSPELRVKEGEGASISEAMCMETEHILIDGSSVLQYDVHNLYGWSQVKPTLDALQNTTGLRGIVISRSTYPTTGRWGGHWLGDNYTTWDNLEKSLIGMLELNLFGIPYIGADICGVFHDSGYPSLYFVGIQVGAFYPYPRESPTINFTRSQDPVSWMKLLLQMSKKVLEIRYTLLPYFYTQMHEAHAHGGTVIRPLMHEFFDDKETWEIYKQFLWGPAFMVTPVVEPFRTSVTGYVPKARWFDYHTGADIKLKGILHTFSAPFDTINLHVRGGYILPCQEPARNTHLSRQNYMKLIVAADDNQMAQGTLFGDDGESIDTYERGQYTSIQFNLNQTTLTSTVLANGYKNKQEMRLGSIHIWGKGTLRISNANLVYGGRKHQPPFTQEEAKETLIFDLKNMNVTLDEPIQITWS

Chain of Sucrase-isomaltase, intestinal (Rattus norvegicus) (P23739 1-1013 limits assumed): as the sequence (P23739 1-1013 limits assumed) above
Chain of Sucrase-isomaltase, intestinal (Rattus norvegicus) (P23739 1014-1841 limits assumed): as the sequence (P23739 1014-1841 limits assumed) above

Row | Compound | inhibition [1] | IC50 [2]
1 | CC1(C)C=C(C=O)[C@]2(C)[C@H]3CC=C4[C@@H]5[C@H](O)C(C)(C)CC[C@]5(C(=O)O)CC[C@@]4(C)[C@]3(C)CC[C@@H]12 | 32.4% | > 1000 µM
2 | Oc1ccc([C@@H]2Oc3cc(O)ccc3[C@H](c3c(O)cc(O)c4c3O[C@H](c3ccc(O)c(O)c3)[C@H](O)C4)[C@H]2O)cc1 | 84.7% | 250 µM
3 | Oc1ccc([C@H]2Oc3cc(O)ccc3[C@H](c3c(O)cc(O)c4c3O[C@H](c3ccc(O)c(O)c3)[C@H](O)C4)[C@H]2O)cc1 | 68.4% | 480 µM
4 | CC1(C)[C@@H](O)CC[C@]2(C)[C@H]3CC[C@@H]4C=C[C@H](O)[C@@]4(C)[C@]3(C)CC[C@@H]12 | 40% | > 1000 µM
5 | Oc1cc(O)c2c(c1)O[C@H](c1ccc(O)c(O)c1)[C@H](O)C2 [(-)-EPICATECHIN] | 61.9% | 650 µM
6 | C[C@H]1O[C@H](O[C@H]2[C@H](O)[C@@H](O)[C@@H](O[C@H]3[C@H](O)[C@@H](O)C(O)O[C@@H]3CO)O[C@@H]2CO)[C@H](O)[C@@H](O)[C@@H]1N[C@H]1C=C(CO)[C@@H](O)[C@H](O)[C@H]1O (some centres not stated) | 51% | 
7 | CC1=CC(=O)CC(C)(C)[C@H]1/C=C/[C@@H](C)O[C@@H]1O[C@H](CO)[C@@H](O)[C@H](O)[C@H]1O | 12.5% | > 1000 µM
8 | Oc1ccc2c(c1)O[C@H](c1ccc(O)c(O)c1)[C@@H](O)[C@@H]2c1c(O)cc2c(c1O)C[C@H](O)[C@@H](c1ccc(O)c(O)c1)O2 | 72.2% | 520 µM
9 | Oc1cc(O)c2c(c1)O[C@@]1(c3ccc(O)c(O)c3)Oc3cc(O)c4c(c3[C@@H]2[C@H]1O)O[C@@H](c1ccc(O)c(O)c1)[C@H](O)[C@H]4c1c(O)cc(O)c2c1O[C@H](c1ccc(O)c(O)c1)[C@H](O)C2 [AESCULTITANNIN B] | 66.8% | 400 µM
10 | C[C@@H]1CC[C@]2(C(=O)O)CC[C@]3(C)C(=CC[C@@H]4[C@@]5(C)CC(=O)[C@H](O)C(C)(C)[C@@H]5CC[C@]43C)[C@@H]2[C@]1(C)O | < 10% | 
11 | Oc1cc(O)c2c(c1)O[C@H](c1ccc(O)c(O)c1)[C@@H](O)C2 [CIANIDANOL] | 80% | 310 µM
12 | CC1=CC(=O)CC(C)(C)/C1=C/CC(C)O[C@@H]1O[C@H](CO)[C@@H](O)[C@H](O)[C@H]1O (some centres not stated) | 28.3% | > 1000 µM
13 | CC1=CC(=O)CC(C)(C)[C@H]1/C=C/[C@H](C)O[C@@H]1O[C@H](CO)[C@@H](O)[C@H](O)[C@H]1O | 14% | > 1000 µM
14 | CC1=CC(=O)CC(C)(C)/C1=C\CC(C)O[C@@H]1O[C@H](CO)[C@@H](O)[C@H](O)[C@H]1O (some centres not stated) | 28.6% | > 1000 µM
15 | Oc1cc(O)c2c(c1)O[C@H](c1ccc(O)c(O)c1)[C@@H](O)[C@@H]2c1c(O)cc(O)c2c1O[C@H](c1ccc(O)c(O)c1)[C@@H](O)C2 | 76% | 430 µM
16 | C=C(C)[C@@H]1CC[C@]2(C(=O)O)CC[C@]3(C)[C@H](CC[C@@H]4[C@@]5(C)CC[C@H](O)C(C)(C)[C@@H]5CC[C@]43C)[C@@H]12 | < 10% | 
17 | C[C@H]1[C@H](C)CC[C@]2(C(=O)O)CC[C@]3(C)C(=CC[C@@H]4[C@@]5(C)CC[C@H](O)C(C)(C)[C@@H]5CC[C@]43C)[C@H]12 [URSOLIC ACID] | 32% | > 1000 µM
18 | C[C@@H]1CC[C@]2(C(=O)O)CC[C@]3(C)C(=CC[C@@H]4[C@@]5(C)C=C(O)C(=O)C(C)(C)[C@@H]5CC[C@]43C)[C@@H]2[C@]1(C)O | < 10% | 

— ChEMBL document CHEMBL3112477, “Rat intestinal sucrase inhibition of constituents from the roots of Rosa rugosa Thunb” (Bioorg Med Chem Lett, 2014)
